Assay results published in article PMC12631574, “Structure–activity relationships of hydrophobic small molecule irreversible inhibitors of tissue transglutaminase” (RSC Medicinal Chemistry, 2025).
Where two headings read alike, the source gives them in different places.

Columns and labels:
[1] = solubility in inhibition assay conditions and stock solutions; assay type: physicochemical; conditions: inhibition assay mixture, DMSO not above 6%
[2] = molecular target: T1, tissue transglutaminase (TG2), C-terminal His-tag TG2 (Homo sapiens, UniProt P21980); assay: continuous AL5 hydrolysis assay of irreversible TG2 inhibition (kobs vs [I]/α); assay type: biochemical
T1 construct: host or cells: Novagen Rosetta 2 (DE3) E. coli
T1 sequence (P21980 1-687): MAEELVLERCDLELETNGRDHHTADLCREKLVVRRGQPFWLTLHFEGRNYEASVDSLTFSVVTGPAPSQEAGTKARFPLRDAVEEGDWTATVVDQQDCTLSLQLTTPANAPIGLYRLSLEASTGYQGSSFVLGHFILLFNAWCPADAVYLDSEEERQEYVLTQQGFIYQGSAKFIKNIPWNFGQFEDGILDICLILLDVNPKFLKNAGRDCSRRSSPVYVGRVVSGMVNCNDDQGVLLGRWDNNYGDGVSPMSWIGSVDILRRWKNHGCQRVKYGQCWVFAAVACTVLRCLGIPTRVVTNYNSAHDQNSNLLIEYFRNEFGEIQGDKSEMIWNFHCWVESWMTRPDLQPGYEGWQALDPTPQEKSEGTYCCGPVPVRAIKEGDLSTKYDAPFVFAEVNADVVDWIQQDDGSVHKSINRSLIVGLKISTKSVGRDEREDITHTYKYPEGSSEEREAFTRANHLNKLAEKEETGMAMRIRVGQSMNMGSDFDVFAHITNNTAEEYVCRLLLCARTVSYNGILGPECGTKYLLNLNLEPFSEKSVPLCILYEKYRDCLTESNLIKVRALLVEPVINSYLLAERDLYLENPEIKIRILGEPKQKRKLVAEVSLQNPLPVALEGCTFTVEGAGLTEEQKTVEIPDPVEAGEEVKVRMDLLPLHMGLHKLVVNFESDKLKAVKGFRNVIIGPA

[3] = parallel artificial membrane permeability assay (PAMPA), at Pharmaron; assay type: in vitro ADME
[4] = tested on: human hepatocytes; design: method as in PMID 36846370; conditions: cited from earlier work
[5] = tested on: MDCK-MDR1 cells; design: method as in PMID 39708924; conditions: cited from earlier work
[6] = stability in human hepatocytes, at Pharmaron; assay type: in vitro ADME; conditions: 20-donor, pooled; for hepatocyte CLint: read-out: In vitro CLint; for half-life: human, hepatocytes, read-out: In vitro t1/2
[7] = incubation in phosphate buffer with no hepatocytes present; assay type: physicochemical; conditions: phosphate buffer 0.1 M, pH = 8.0, no hepatocytes present
[8] = inhibition efficiency, combined from kinact and KI
[9] = irreversible inhibition, AL5 100 μM, pH 6.9, 25 °C, triplicate
[10] = Pe in cm s^−1, lower value is more permeable, read-out: −log[Pe (cm s^−1)] (converted)
[11] = supplement, kinetics data and fitting

| Compound | kinact [2] | KI (inactivation) [2, 9] | KI (inactivation) [2, 11] | kinact/KI [2, 11] | other results |
| --- | --- | --- | --- | --- | --- |
| C=CC(=O)NCC(=O)N1CCN(C(=O)c2ccc(Oc3ccccc3)cc2)CC1 [Compound 22h, N-2-[4-[((4-Phenoxyphenyl)carbonyl)-1-piperazinyl]-2-oxoethyl]propenamide] | – | – | – | – | solubility in assay conditions [1]: too insoluble in assay conditions; kinact/KI [2, 8]: INS.; KI [2, 9]: INS.; kinact [2, 9]: INS. |
| C=CC(=O)NCC(=O)N1CCN(C(=O)C23CC4CC(CC(C4)C2)C3)CC1 [EB-2-16, reference compound] | 0.0233 s⁻¹ | 2.43 ± 0.19 µM | 2.43 ± 0.19 µM | 576 ± 50 × 103 M-1min-1 | Papp [3, 10]: 1.55 ×10⁻⁶ cm/s; In vitro t1/2 [4]: >120 (ref. [27]) min; susceptibility to P-glycoprotein-mediated efflux ([5]; MDCK-MDR1 cells): not susceptible to P-glycoprotein-mediated efflux; diffusion across the membrane of MDCK-MDR1 cells ([5]; bidirectional): excellent bidirectional diffusion |
| C=CC(=O)NCC(=O)N1CCN(C(=O)C23CC4CC(C2)CC(c2ccccc2)(C4)C3)CC1 [Compound 25d, N-2-[4-[(3-Phenyladamantanecarbonyl)-1-piperazinyl]-2-oxoethyl]propenamide] | 0.0112 s⁻¹ | 0.69 ± 0.07 µM | 0.691 ± 0.067 µM | 972 ± 103 × 103 M-1min-1 | Papp [3, 10]: 13.2 ×10⁻⁶ cm/s; hepatocyte CLint [6]: 29.3 µL/min/1e6 cells; half-life [6]: ~47 min |
| C=CC(=O)NCC(=O)N1CCN(C(=O)c2ccc(-c3ccc(C)cc3)cc2)CC1 [Compound 21i, N-2-[4-[((4′-Methyl-4-biphenyl)carbonyl)-1-piperazinyl]-2-oxoethyl]propenamide] | – | – | – | – | solubility in assay conditions [1]: too insoluble in assay conditions; kinact/KI [2, 8]: INS; KI [2, 9]: INS; kinact [2, 9]: INS |
| C=CC(=O)NCC(=O)N1CCN(C(=O)c2cccc(-c3cccc(C)c3)c2)CC1 [Compound 21e, N-2-[4-[((3′-Methyl-3-biphenyl)carbonyl)-1-piperazinyl]-2-oxoethyl]propenamide] | 0.0104 s⁻¹ | 4.4 ± 2.8 µM | 4.42 ± 2.83 µM | 141 ± 98 × 103 M-1min-1 | – |
| C=CC(=O)NCC(=O)N1CCN(C(=O)c2ccccc2Oc2ccccc2)CC1 [Compound 22b, N-2-[4-[((2-Phenoxyphenyl)carbonyl)-1-piperazinyl]-2-oxoethyl]propenamide] | 0.0143 s⁻¹ | 9.1 ± 0.8 µM | 9.06 ± 0.8 µM | 94.8 ± 9.0 × 103 M-1min-1 | – |
| C=CC(=O)NCC(=O)N1CCN(C(=O)c2cccc(Nc3ccccc3)c2)CC1 [Compound 22f, N-2-[4-[(((3-Phenylamino)phenyl)carbonyl)-1-piperazinyl]-2-oxoethyl]propenamide] | 0.0165 s⁻¹ | 31.7 ± 8.6 µM | 31.7 ± 8.6 µM | 31.2 ± 10.0 × 103 M-1min-1 | – |
| C=CC(=O)NCC(=O)N1CCN(C(=O)c2cccc(-c3ccccc3C)c2)CC1 [Compound 21d, N-2-[4-[((2′-Methyl-3-biphenyl)carbonyl)-1-piperazinyl]-2-oxoethyl]propenamide] | 0.012 s⁻¹ | 1.1 ± 0.1 µM | 1.13 ± 0.099 µM | 636 ± 58 × 103 M-1min-1 | – |
| C=CC(=O)NCC(=O)N1CCN(C(=O)c2ccccc2Cc2ccccc2)CC1 [Compound 22a, N-2-[4-[((2-Benzylphenyl)carbonyl)-1-piperazinyl]-2-oxoethyl]propenamide] | 0.0146 s⁻¹ | 14.2 ± 3.3 µM | 14.2 ± 3.3 µM | 61.3 ± 15.9 × 103 M-1min-1 | – |
| C=CC(=O)NCC(=O)N1CCN(C(=O)C2CCCC2)CC1 [Compound 6c, N-2-[4-[(Cyclopentanecarbonyl)-1-piperazinyl]-2-oxoethyl]propenamide] | 0.00868 s⁻¹ | 13 ± 1.6 µM | 13 ± 1.6 µM | 40.0 ± 5.3 × 103 M-1min-1 | – |
| C=CC(=O)NCC(=O)N1CCN(C(=O)C23CC4CC(CC(I)(C4)C2)C3)CC1 [Compound 29, N-2-[4-[(3-Iodoadamantanecarbonyl)-1-piperazinyl]-2-oxoethyl]propenamide] | 0.0278 s⁻¹ | 1.4 ± 0.12 µM | 1.4 ± 0.12 µM | 1195 ± 112 × 103 M-1min-1 | stability in phosphate buffer [7]: degrade after 24 hours; Papp [3, 10]: 5.25 ×10⁻⁶ cm/s; hepatocyte CLint [6]: 69.2 µL/min/1e6 cells; half-life [6]: 20 min |
| C=CC(=O)NCC(=O)N1CCN(C(=O)C23CC4CC(CC(F)(C4)C2)C3)CC1 [Compound 25a, N-2-[4-[(3-Fluoroadamantanecarbonyl)-1-piperazinyl]-2-oxoethyl]propenamide] | – | 3.15 ± 0.33 µM | 3.15 ± 0.33 µM | – | – |
| C=CC(=O)NCC(=O)N1CCN(C(=O)C23CC4CC(CC(Br)(C4)C2)C3)CC1 [Compound 25c, N-2-[4-[(3-Bromoadamantanecarbonyl)-1-piperazinyl]-2-oxoethyl]propenamide] | 0.0119 s⁻¹ | 0.65 ± 0.08 µM | 0.648 ± 0.085 µM | 1104 ± 162 × 103 M-1min-1 | stability in phosphate buffer [7]: degrade after 24 hours; Papp [3, 10]: 2.19 ×10⁻⁶ cm/s |
| C=CC(=O)NCC(=O)N1CCN(C(=O)c2ccc(Nc3ccccc3)cc2)CC1 [Compound 22i, N-2-[4-[(((4-Phenylamino)phenyl)carbonyl)-1-piperazinyl]-2-oxoethyl]propenamide] | 0.0255 s⁻¹ | 92.8 ± 43.3 µM | 92.8 ± 43.3 µM | 16.5 ± 9.4 × 103 M-1min-1 | – |
| C=CC(=O)NCC(=O)N1CCN(C(=O)c2ccc(-c3ccccc3C)cc2)CC1 [Compound 21g, N-2-[4-[((2′-Methyl-4-biphenyl)carbonyl)-1-piperazinyl]-2-oxoethyl]propenamide] | 0.0217 s⁻¹ | 54.1 ± 14.6 µM | 54.1 ± 14.6 µM | 24.1 ± 7.3 × 103 M-1min-1 | – |
| C=CC(=O)NCC(=O)N1CCN(C(=O)c2ccc(-c3cccc(C)c3)cc2)CC1 [Compound 21h, N-2-[4-[((3′-Methyl-4-biphenyl)carbonyl)-1-piperazinyl]-2-oxoethyl]propenamide] | 0.0148 s⁻¹ | 38.9 ± 17.7 µM | 38.9 ± 17.7 µM | 22.8 ± 11.7 × 103 M-1min-1 | – |
| C=CC(=O)NCC(=O)N1CCN(C(=O)c2ccccc2Nc2ccccc2)CC1 [Compound 22c, N-2-[4-[(((2-Phenylamino)phenyl)carbonyl)-1-piperazinyl]-2-oxoethyl]propenamide] | 0.0119 s⁻¹ | 6.4 ± 0.7 µM | 6.38 ± 0.7 µM | 112 ± 14 × 103 M-1min-1 | – |
| C=CC(=O)NCC(=O)N1CCN(C(=O)c2ccccc2-c2ccc(C)cc2)CC1 [Compound 21c, N-2-[4-[((4′-Methyl-2-biphenyl)carbonyl)-1-piperazinyl]-2-oxoethyl]propenamide] | 0.00807 s⁻¹ | 8.3 ± 2.1 µM | 8.28 ± 2.08 µM | 58.5 ± 16.2 × 103 M-1min-1 | – |
| C=CC(=O)NCC(=O)N1CCN(S(=O)(=O)C23CC4CC(CC(C4)C2)C3)CC1 [Compound 38, N-[2-(4-((Adamantan-1-yl)sulfonyl)piperazin-1-yl)-2-oxoethyl]propenamide] | 0.0162 s⁻¹ | 7.56 ± 1.87 µM | 7.56 ± 1.87 µM | 129 ± 36 × 103 M-1min-1 | – |
| C=CC(=O)NCC(=O)N1CCN(C(=O)c2ccccc2-c2cccc(C)c2)CC1 [Compound 21b, N-2-[4-[((3′-Methyl-2-biphenyl)carbonyl)-1-piperazinyl]-2-oxoethyl]propenamide] | 0.00902 s⁻¹ | 2.6 ± 0.7 µM | 2.64 ± 0.72 µM | 205 ± 60 × 103 M-1min-1 | – |
| C=CC(=O)NCC(=O)N1CCN(C(=O)C23CC4CC(CC(Cl)(C4)C2)C3)CC1 [Compound 25b, N-2-[4-[(3-Chloroadamantanecarbonyl)-1-piperazinyl]-2-oxoethyl]propenamide] | 0.0282 s⁻¹ | 1.79 ± 0.17 µM | 1.79 ± 0.17 µM | 941 ± 101 × 103 M-1min-1 | −log[Pe (cm s^−1)] ([3]; Pe in cm s^−1, lower value is more permeable): 5.85; Papp ([3]; read-out: Pe): 1.41 ×10⁻⁶ cm/s; hepatocyte CLint [6]: 6.91 µL/min/1e6 cells; half-life [6]: 200 min |
| C=CC(=O)NCC(=O)N1CCN(C(=O)C2CCCCC2)CC1 [Compound 6d, N-2-[4-[(Cyclohexanecarbonyl)-1-piperazinyl]-2-oxoethyl]propenamide] | 0.0177 s⁻¹ | 7.1 ± 1.3 µM | 7.14 ± 1.34 µM | 149 ± 31 × 103 M-1min-1 | – |
